Data from ChEMBL document CHEMBL4251568, “A routinely used protein staining dye acts as an inhibitor of wild type and mutant alpha-synuclein aggregation and modulator of neurotoxicity” (Eur J Med Chem, 2018).

Assays:
[1] = Cytotoxicity against human SH-SY5Y cells assessed as cell viability after 24 hrs by MTT assay; type: cell-based; conditions: read-out: Activity
[2] = tested on: SH-SY5Y; experiment: Cytotoxicity against human SH-SY5Y cells assessed as cell viability after 24 hrs by LDH release assay; type: cell-based

For `CCOc1ccc(Nc2ccc(C(=C3C=CC(=[N+](CC)Cc4cccc(S(=O)(=O)[O-])c4)C=C3)c3ccc(N(CC)Cc4cccc(S(=O)(=O)[O-])c4)cc3)cc2)cc1.[Na+]`, the viability at 24 h [1] was 99% and the Activity [2] was “Non-Toxic”.

In the case of `CCOc1ccc(Nc2ccc(/C(=C3C=C/C(=[N+](/CC)Cc4cccc(S(=O)(=O)[O-])c4)C=C/3C)c3ccc(N(CC)Cc4cccc(S(=O)(=O)[O-])c4)cc3C)cc2)cc1.[Na+]` [BRILLIANT BLUE G], the viability at 24 h [1] is reported as 19% and the Activity [2] is reported as “Toxic”.
